Experimental data published in paper PMC11597817, “Modulation of Multispecific Transporters by Uncaria tomentosa Extract and Its Major Phytoconstituents” (Pharmaceutics, 2024).

Assays:
[1] = system: mBCRP; parameters: method as in ref 154 (a number printed in a supplementary file, which may have a reference list of its own: not looked up in the article's list); conditions: cited from earlier work
[2] = system: Rat BSEP; parameters: method as in ref 154 (a number printed in a supplementary file, which may have a reference list of its own: not looked up in the article's list); conditions: cited from earlier work
[3] = system: mouse MRP1; parameters: method as in ref 154 (a number printed in a supplementary file, which may have a reference list of its own: not looked up in the article's list); conditions: cited from earlier work
[4] = system: ABCG5/8; parameters: method as in ref 155 (a number printed in a supplementary file, which may have a reference list of its own: not looked up in the article's list); conditions: cited from earlier work
[5] = system: MDR1; conditions: cited from earlier work
[6] = system: rNTCP; parameters: method as in ref 157 (a number printed in a supplementary file, which may have a reference list of its own: not looked up in the article's list); conditions: transcription and expression; cited from earlier work
[7] = system: rMRP1; parameters: method as in ref 156 (a number printed in a supplementary file, which may have a reference list of its own: not looked up in the article's list); conditions: transcription and expression; cited from earlier work
[8] = system: rMRP2; parameters: method as in ref 157 (a number printed in a supplementary file, which may have a reference list of its own: not looked up in the article's list); conditions: transcription and expression; cited from earlier work
[9] = system: rMDR1a; parameters: method as in ref 157 (a number printed in a supplementary file, which may have a reference list of its own: not looked up in the article's list); conditions: transcription and expression; cited from earlier work
[10] = system: rMRP4; parameters: method as in ref 157 (a number printed in a supplementary file, which may have a reference list of its own: not looked up in the article's list); conditions: transcription and expression; cited from earlier work
[11] = system: pregnane X receptor (PXR); conditions: cited from earlier work
[12] = system: C33A; assay: Antiproliferative MTT assay; format: cell-based, human; conditions: 72 h
Protocol: (§1) For the determination of the antiproliferative properties of the prepared extract and selected alkaloids (isopteropodine, mitraphylline, and uncarine D), an MTT assay was applied on our […] cell panel (see Table S4). […] All were maintained in a minimal essential medium completed with 10% fetal bovine serum, 1% non-essential amino acids, and 1% penicillin–streptomycin at 37 °C in a humidified atmosphere containing 5% CO2. All cell lines were purchased from the European Collection of Cell Cultures (Salisbury, UK), except for SiHa and C33A, which were from the American Tissue Culture Collection, LGC Standards GmbH (Wesel, Germany). Cell culture media and supplements were obtained from Lonza Group Ltd. (Basel, Switzerland). Cells were seeded into 96-well plates (C33A 10,000/well, all others 5000/well); after overnight incubation, the test substances were added and incubated for another 72 h under cell-culturing conditions. Uncaria tomentosa extract and the alkaloids were tested in the 1–90 μg/mL and 1–30 μM ranges, respectively. Finally, 20 μL of 5 mg/mL MTT solution was added to each well and incubated for 4 h; the medium was discarded, and the precipitated formazan crystals were dissolved in DMSO for 60 min with shaking. The absorbance was determined using a microplate reader (SPECTROstar Nano, BMG Labtech GmbH). Two independent experiments were performed with five parallels for each condition. Cisplatin, a clinically used anticancer agent (Ebewe GmbH, Unterach, Austria), was included as a reference compound. Calculations were conducted using the GraphPad Prism 10.0 software (GraphPad Software Inc., San Diego, CA, USA).
(§2) Table S4 – Antiproliferative properties of Uncaria tomentosa extract, three natural products (isopteropodine, mitraphylline, and uncarine D) and the
(§3) reference agent cisplatin.
(§4) Cell line Uncaria tomentosa isopteropodine mitraphylline uncarine D [95% confidence
(§5) 1: The highest applied concentration was 90 μg/mL and 30 μM for the extract and the pure natural products, respectively.
(§6) 2: Inhibitions less than 20% compared to the untreated control were regarded as negligible and were not given numerically.

[13] = system: SiHa; assay: Antiproliferative MTT assay; format: cell-based, human; conditions: 72 h
Protocol: as §1, §2, §3, §4, §5, §6

[14] = system: HEK293-Mock-B; assay: Antiproliferative MTT assay; format: cell-based, human; conditions: 72 h
Protocol: as §1, §2, §3, §4, §5, §6

[15] = system: HEK293-Mock; assay: Antiproliferative MTT assay; format: cell-based, human; conditions: 72 h
Protocol: as §1, §2, §3, §4, §5, §6

[16] = system: HEK293-OCT2; format: cell-based, human
Protocol: as §1, §2, §3, §4, §5, §6

[17] = system: HEK293-OCT1; format: cell-based, human
Protocol: as §1, §2, §3, §4, §5, §6

[18] = system: HEK293-OATP2B1; format: cell-based, human
Protocol: as §1, §2, §3, §4, §5, §6

[19] = system: HEK293-OATP1B3; format: cell-based, human
Protocol: as §1, §2, §3, §4, §5, §6

[20] = system: HEK293-OAT1; format: cell-based, human
Protocol: as §1, §2, §3, §4, §5, §6

[21] = system: NIH/3T3; assay: Antiproliferative MTT assay; format: cell-based, murine; conditions: 72 h
Protocol: as §1, §2, §3, §4, §5, §6

[22] = system: OATP1B1; parameters: method as in ref 75 (a number printed in a supplementary file, which may have a reference list of its own: not looked up in the article's list); conditions: cited from earlier work; for inhibition: OATP1B1/3
[23] = system: OATP1B3; parameters: method as in ref 75 (a number printed in a supplementary file, which may have a reference list of its own: not looked up in the article's list); conditions: cited from earlier work; for inhibition: OATP1B1/3
[24] = system: MCF7; assay: Antiproliferative MTT assay; format: cell-based, human; conditions: 30 μM pure natural product, 72 h
Protocol: as §1, §2, §3, §4, §5, §6

[25] = system: T47D; assay: Antiproliferative MTT assay; format: cell-based, human; conditions: 30 μM pure natural product, 72 h
Protocol: as §1, §2, §3, §4, §5, §6

[26] = system: A2780; assay: Antiproliferative MTT assay; format: cell-based, human; conditions: 30 μM pure natural product, 72 h
Protocol: as §1, §2, §3, §4, §5, §6

[27] = system: HeLa; assay: Antiproliferative MTT assay; format: cell-based, human; conditions: 30 μM pure natural product, 72 h
Protocol: as §1, §2, §3, §4, §5, §6

[28] = system: MDA-MB-231; assay: Antiproliferative MTT assay; format: cell-based, human; conditions: 30 μM pure natural product, 72 h
Protocol: as §1, §2, §3, §4, §5, §6

[29] = system: SERT; parameters: method as in ref 153 (a number printed in a supplementary file, which may have a reference list of its own: not looked up in the article's list); conditions: cited from earlier work
[30] = system: DAT; parameters: method as in ref 153 (a number printed in a supplementary file, which may have a reference list of its own: not looked up in the article's list); conditions: cited from earlier work
[31] = system: NET; parameters: method as in ref 153 (a number printed in a supplementary file, which may have a reference list of its own: not looked up in the article's list); conditions: cited from earlier work
[32] = read-out: cisplatin IC50 [95% confidence interval]

CC[C@H](CC[C@@H](C)[C@H]1CC[C@H]2[C@@H]3CC=C4C[C@@H](O)CC[C@]4(C)[C@H]3CC[C@]12C)C(C)C [Beta-Sitosterol]
Type of interaction [1]: no substrate, no inhibitor | Type of interaction [2]: no substrate, no inhibitor | Type of interaction [3]: no substrate, no inhibitor | Type of interaction [4]: probably substrate | Type of interaction [5]: no substrate, no inhibitor

CC1(C)C2CCC1(C)C(O)C2 (stereo not shown) [Borneol]
Type of interaction [6]: inhibited the transcription | Type of interaction [7]: inhibited the transcription | Type of interaction [8]: inhibited the transcription | Type of interaction [9]: inhibited the transcription | Type of interaction [10]: inhibited the transcription

C=C[C@H]1CN2CC[C@]3(C(=O)Nc4ccccc43)[C@@H]2C[C@@H]1/C(=C\OC)C(=O)OC [corynoxeine]
PXR activation [11]: PXR activators

N.N.[Cl][Pt][Cl] [cisplatin, reference compound]
IC50 [12, 32]: 5.85 µM | IC50 [13, 32]: 4.29 µM | IC50 [14, 32]: 13.3 µM | IC50 [15, 32]: 19.5 µM | IC50 [16]: 5.51 µM | IC50 [17]: 9.14 µM | IC50 [18]: 9.7 µM | IC50 [19]: 11.2 µM | IC50 [20]: 5.55 µM | IC50 [21, 32]: 5.5 µM

CC(C)=CCC[C@](C)(O)[C@@H]1CC=C(C)CC1 [Alpha-bisbolol]
inhibition [22]: < 50% | inhibition [23]: < 50%

CC[C@H](CC[C@@H](C)[C@H]1CC[C@H]2[C@@H]3CC=C4C[C@@H](O)CC[C@]4(C)[C@H]3CC[C@]12C)C(C)C [Stigmast-5-en-3beta-ol]
inhibition [22]: < 50% | inhibition [23]: < 50%

O=C1CC(c2ccccc2)Oc2cc(O)cc(O)c21 (stereo not shown) [5,7-Dihydroxyflavanone]
inhibition [22]: < 50% | inhibition [23]: < 50%

C=C[C@H]1CN2CC[C@@]3(C(=O)Nc4ccccc43)[C@@H]2C[C@@H]1/C(=C\OC)C(=O)OC [isocorynoxeine]
PXR activation [11]: PXR activators

COc1cc(O)cc(/C=C/c2ccccc2)c1 [Pinosylvin 3-(methyl ether)]
inhibition [22]: < 50% | inhibition [23]: < 50%

CC(C)C1=CC2=CC[C@@H]3[C@](C)(CCC[C@@]3(C)C(=O)O)[C@H]2CC1 [Abietic acid]
Ki ([22]; first value of OATP1B1/3 pair): 1470 nM | Ki ([23]; second value of OATP1B1/3 pair): 4.08 µM

COC(=O)C1=CO[C@@H](C)[C@@H]2CN3CC[C@]4(C(=O)Nc5ccccc54)[C@@H]3C[C@H]12 [pteropodine]
PXR activation [11]: PXR activators

COC(=O)C1=CO[C@@H](C)[C@@H]2CN3CC[C@@]4(C(=O)Nc5ccccc54)[C@H]3C[C@H]12 [uncarine D]
Cell growth inhibition at the highest concentration (% ± SEM) [24]: < 20% | Cell growth inhibition at the highest concentration (% ± SEM) ([12]; 30 μM pure natural product): < 20% | Cell growth inhibition at the highest concentration (% ± SEM) [25]: < 20% | Cell growth inhibition at the highest concentration (% ± SEM) [26]: < 20% | Cell growth inhibition at the highest concentration (% ± SEM) ([13]; 30 μM pure natural product): < 20% | Cell growth inhibition at the highest concentration (% ± SEM) [27]: < 20% | Cell growth inhibition at the highest concentration (% ± SEM) [28]: < 20% | Cell growth inhibition at the highest concentration (% ± SEM) ([14]; 30 μM pure natural product): < 20% | Cell growth inhibition at the highest concentration (% ± SEM) ([15]; 30 μM pure natural product): < 20% | Cell growth inhibition at the highest concentration (% ± SEM) ([21]; 30 μM pure natural product): < 20%

CC1(C)CCC2(C(=O)O)CCC3(C)C(=CCC4C5(C)CCC(O)C(C)(CO)C5CCC43C)C2C1 (stereo not drawn) [alpha-Hederagenin]
IC50 [29]: 1.34 ± 0.04 nM | IC50 [30]: 1.09 ± 0.12 nM | IC50 [31]: 0.15 ± 0.02 nM
